{"source": "ChEMBL document CHEMBL4507263", "about": "“Data for DCP probe BAY-474” (2021)", "key": {"[1]": {"molecular_target": "Mitogen-activated protein kinase 6 (Homo sapiens) (UniProt Q16659)", "details": "Compound concentration 1000.0 nM"}, "[2]": {"molecular_target": "Mitogen-activated protein kinase kinase kinase 13 (Homo sapiens) (UniProt O43283)", "details": "Compound concentration 1000.0 nM"}, "[3]": {"molecular_target": "Serine/threonine-protein kinase Nek5 (Homo sapiens) (UniProt Q6P3R8)", "details": "Compound concentration 1000.0 nM"}, "[4]": {"molecular_target": "MAP kinase-interacting serine/threonine-protein kinase 2 (Homo sapiens) (UniProt Q9HBH9)", "details": "Compound concentration 1000.0 nM"}, "[5]": {"molecular_target": "Ephrin type-B receptor 4 (Homo sapiens) (UniProt P54760)", "details": "Compound concentration 1000.0 nM"}, "[6]": {"molecular_target": "ALK tyrosine kinase receptor (Homo sapiens) (UniProt Q9UM73)", "details": "Compound concentration 1000.0 nM"}, "[7]": {"molecular_target": "Dual specificity mitogen-activated protein kinase kinase 2 (Homo sapiens) (UniProt P36507)", "sequence (P36507 whole entry)": "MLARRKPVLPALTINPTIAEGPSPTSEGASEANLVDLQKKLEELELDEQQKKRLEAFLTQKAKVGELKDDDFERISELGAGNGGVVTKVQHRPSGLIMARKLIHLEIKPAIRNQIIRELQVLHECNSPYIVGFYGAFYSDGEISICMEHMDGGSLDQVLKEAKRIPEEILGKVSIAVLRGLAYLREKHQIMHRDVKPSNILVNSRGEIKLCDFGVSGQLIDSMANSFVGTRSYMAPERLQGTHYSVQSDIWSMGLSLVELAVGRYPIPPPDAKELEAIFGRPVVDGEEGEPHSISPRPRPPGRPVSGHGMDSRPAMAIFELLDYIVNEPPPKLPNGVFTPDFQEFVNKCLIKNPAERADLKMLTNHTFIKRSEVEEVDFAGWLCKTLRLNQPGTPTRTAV", "details": "Compound concentration 1000.0 nM"}, "[8]": {"molecular_target": "Serine/threonine-protein kinase DCLK3 (Homo sapiens) (UniProt Q9C098)", "details": "Compound concentration 1000.0 nM"}, "[9]": {"molecular_target": "Casein kinase II subunit alpha' (Homo sapiens) (UniProt P19784)", "sequence (P19784 whole entry, looked up)": "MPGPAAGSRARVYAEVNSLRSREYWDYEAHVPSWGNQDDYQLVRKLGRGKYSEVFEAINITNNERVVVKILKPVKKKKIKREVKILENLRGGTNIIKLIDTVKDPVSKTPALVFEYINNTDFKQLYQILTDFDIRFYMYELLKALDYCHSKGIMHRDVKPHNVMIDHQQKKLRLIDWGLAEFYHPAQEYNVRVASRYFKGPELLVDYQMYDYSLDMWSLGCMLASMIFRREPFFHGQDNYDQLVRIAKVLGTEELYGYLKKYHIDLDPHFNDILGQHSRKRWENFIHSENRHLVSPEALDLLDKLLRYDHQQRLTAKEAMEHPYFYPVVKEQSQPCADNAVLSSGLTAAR", "details": "Compound concentration 1000.0 nM"}, "[10]": {"molecular_target": "Tyrosine-protein kinase ABL1 (Homo sapiens) (UniProt P00519)", "details": "Compound concentration 1000.0 nM"}, "[11]": {"molecular_target": "Insulin receptor (Homo sapiens) (UniProt P06213)", "details": "Compound concentration 1000.0 nM"}, "[12]": {"molecular_target": "Tyrosine-protein kinase TXK (Homo sapiens) (UniProt P42681)", "details": "Compound concentration 1000.0 nM"}, "[13]": {"molecular_target": "Tyrosine-protein kinase Tec (Homo sapiens) (UniProt P42680)", "details": "Compound concentration 1000.0 nM"}, "[14]": {"molecular_target": "Atypical kinase COQ8A, mitochondrial (Homo sapiens) (UniProt Q8NI60)", "details": "Compound concentration 1000.0 nM"}, "[15]": {"test_system": "Hepatocyte growth factor receptor (Homo sapiens), P08581 [Y1235D]", "details": "Compound concentration 1000.0 nM"}, "[16]": {"molecular_target": "Activated CDC42 kinase 1 (Homo sapiens) (UniProt Q07912)", "details": "Compound concentration 1000.0 nM"}, "[17]": {"test_system": "Receptor-type tyrosine-protein kinase FLT3 (Homo sapiens), P36888 [D835Y]", "details": "Compound concentration 1000.0 nM"}, "[18]": {"molecular_target": "Serine/threonine-protein kinase TBK1 (Homo sapiens) (UniProt Q9UHD2)", "details": "Compound concentration 1000.0 nM"}, "[19]": {"molecular_target": "Tyrosine-protein kinase Fgr (Homo sapiens) (UniProt P09769)", "details": "Compound concentration 1000.0 nM"}, "[20]": {"molecular_target": "Serine/threonine-protein kinase MARK1 (Homo sapiens) (UniProt Q9P0L2)", "sequence (Q9P0L2 whole entry, looked up)": "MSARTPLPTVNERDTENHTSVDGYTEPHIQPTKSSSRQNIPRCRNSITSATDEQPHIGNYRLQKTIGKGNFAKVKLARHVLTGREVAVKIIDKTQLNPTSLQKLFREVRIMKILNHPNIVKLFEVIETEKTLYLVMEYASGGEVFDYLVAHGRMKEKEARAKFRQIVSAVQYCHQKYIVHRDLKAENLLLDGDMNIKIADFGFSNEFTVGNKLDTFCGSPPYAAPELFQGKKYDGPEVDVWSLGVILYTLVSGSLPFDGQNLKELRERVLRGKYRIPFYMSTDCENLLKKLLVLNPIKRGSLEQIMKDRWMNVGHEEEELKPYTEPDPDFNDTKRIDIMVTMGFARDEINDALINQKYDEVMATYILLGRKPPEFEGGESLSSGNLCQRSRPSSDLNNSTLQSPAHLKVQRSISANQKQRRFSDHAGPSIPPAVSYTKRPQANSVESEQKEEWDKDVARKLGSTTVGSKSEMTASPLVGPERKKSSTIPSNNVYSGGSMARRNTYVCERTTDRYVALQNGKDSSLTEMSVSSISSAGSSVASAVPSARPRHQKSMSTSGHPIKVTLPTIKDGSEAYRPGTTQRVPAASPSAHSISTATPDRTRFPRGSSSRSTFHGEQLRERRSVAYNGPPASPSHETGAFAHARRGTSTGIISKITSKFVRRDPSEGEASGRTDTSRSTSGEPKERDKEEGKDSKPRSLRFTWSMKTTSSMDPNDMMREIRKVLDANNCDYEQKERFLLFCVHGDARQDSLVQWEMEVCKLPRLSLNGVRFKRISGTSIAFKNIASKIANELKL", "details": "Compound concentration 1000.0 nM"}, "[21]": {"molecular_target": "Myosin-IIIa (Homo sapiens) (UniProt Q8NEV4)", "details": "Compound concentration 1000.0 nM"}, "[22]": {"molecular_target": "Cyclin-dependent kinase 8 (Homo sapiens) (UniProt P49336)", "details": "Compound concentration 1000.0 nM"}, "[23]": {"molecular_target": "Mitogen-activated protein kinase 3 (Homo sapiens) (UniProt P27361)", "details": "Compound concentration 1000.0 nM"}, "[24]": {"molecular_target": "Casein kinase I isoform gamma-2 (Homo sapiens) (UniProt P78368)", "details": "Compound concentration 1000.0 nM"}, "[25]": {"test_system": "Tyrosine-protein kinase ABL1 (Homo sapiens), P00519 [F317I]", "sequence (P00519 whole entry F317I)": "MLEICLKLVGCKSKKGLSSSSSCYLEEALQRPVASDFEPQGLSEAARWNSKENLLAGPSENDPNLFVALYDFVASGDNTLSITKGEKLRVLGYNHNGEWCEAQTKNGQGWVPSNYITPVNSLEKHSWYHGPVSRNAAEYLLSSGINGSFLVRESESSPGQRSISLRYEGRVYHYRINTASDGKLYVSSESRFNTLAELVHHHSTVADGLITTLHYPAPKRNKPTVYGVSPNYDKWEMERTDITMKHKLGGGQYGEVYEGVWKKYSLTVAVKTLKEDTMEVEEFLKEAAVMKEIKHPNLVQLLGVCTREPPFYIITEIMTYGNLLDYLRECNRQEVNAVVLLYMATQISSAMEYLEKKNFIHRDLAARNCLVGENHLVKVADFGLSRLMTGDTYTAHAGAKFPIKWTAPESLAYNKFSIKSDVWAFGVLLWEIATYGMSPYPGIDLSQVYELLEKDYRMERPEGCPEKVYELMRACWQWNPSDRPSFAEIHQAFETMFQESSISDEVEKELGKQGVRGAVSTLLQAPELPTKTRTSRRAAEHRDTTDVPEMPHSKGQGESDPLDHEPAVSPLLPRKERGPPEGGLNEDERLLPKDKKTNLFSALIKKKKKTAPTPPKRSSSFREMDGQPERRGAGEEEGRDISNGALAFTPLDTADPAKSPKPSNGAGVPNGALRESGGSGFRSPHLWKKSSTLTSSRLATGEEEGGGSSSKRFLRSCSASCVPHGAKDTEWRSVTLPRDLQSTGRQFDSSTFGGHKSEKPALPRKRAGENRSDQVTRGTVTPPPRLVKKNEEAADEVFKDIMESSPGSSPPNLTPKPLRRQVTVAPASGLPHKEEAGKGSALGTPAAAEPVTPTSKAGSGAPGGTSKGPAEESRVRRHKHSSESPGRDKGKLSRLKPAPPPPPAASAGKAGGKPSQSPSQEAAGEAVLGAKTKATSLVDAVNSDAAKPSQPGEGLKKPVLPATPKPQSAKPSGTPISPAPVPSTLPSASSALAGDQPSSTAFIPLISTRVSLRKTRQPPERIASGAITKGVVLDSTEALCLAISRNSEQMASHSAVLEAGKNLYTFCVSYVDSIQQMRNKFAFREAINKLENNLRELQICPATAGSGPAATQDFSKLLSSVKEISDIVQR", "details": "Compound concentration 1000.0 nM"}, "[26]": {"molecular_target": "Serine/threonine-protein kinase MRCK alpha (Homo sapiens) (UniProt Q5VT25)", "details": "Compound concentration 1000.0 nM"}, "[27]": {"molecular_target": "Phosphatidylinositol 4,5-bisphosphate 3-kinase catalytic subunit beta isoform (Homo sapiens) (UniProt P42338)", "sequence (P42338 whole entry, looked up, canonical isoform)": "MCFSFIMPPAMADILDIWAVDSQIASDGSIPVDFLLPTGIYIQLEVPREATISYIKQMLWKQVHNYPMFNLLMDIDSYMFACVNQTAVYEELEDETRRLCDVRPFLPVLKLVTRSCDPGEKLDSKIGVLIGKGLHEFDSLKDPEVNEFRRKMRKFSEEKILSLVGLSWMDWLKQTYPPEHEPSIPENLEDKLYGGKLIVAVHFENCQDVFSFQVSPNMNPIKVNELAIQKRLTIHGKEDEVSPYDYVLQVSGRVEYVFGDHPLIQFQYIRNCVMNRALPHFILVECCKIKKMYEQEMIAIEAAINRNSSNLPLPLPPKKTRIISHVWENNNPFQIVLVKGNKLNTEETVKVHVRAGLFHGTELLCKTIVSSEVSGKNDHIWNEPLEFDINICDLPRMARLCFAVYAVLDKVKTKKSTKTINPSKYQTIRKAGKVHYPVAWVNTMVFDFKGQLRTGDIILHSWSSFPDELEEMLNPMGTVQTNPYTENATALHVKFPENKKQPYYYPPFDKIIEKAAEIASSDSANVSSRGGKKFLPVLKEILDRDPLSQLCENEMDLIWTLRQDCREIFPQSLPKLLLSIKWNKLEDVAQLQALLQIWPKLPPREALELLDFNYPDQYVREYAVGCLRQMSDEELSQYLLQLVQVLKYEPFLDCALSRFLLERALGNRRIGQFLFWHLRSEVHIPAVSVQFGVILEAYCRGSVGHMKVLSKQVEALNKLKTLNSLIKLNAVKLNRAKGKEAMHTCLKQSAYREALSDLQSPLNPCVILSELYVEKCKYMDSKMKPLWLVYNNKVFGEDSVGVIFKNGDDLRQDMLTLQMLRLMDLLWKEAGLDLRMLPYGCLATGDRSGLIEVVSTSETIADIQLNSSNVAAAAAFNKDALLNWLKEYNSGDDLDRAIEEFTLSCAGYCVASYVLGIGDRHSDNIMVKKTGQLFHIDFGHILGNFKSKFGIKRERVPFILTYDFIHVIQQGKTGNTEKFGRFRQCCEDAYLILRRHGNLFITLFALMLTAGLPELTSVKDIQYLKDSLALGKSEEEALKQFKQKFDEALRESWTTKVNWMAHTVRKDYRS", "details": "Compound concentration 1000.0 nM"}, "[28]": {"molecular_target": "Rhodopsin kinase GRK7 (Homo sapiens) (UniProt Q8WTQ7)", "details": "Compound concentration 1000.0 nM"}, "[29]": {"molecular_target": "Serine/threonine-protein kinase LATS1 (Homo sapiens) (UniProt O95835)", "details": "Compound concentration 1000.0 nM"}, "[30]": {"molecular_target": "Serine/threonine-protein kinase TAO3 (Homo sapiens) (UniProt Q9H2K8)", "details": "Compound concentration 1000.0 nM"}, "[31]": {"molecular_target": "Citron Rho-interacting kinase (Homo sapiens) (UniProt O14578)", "details": "Compound concentration 1000.0 nM"}, "[32]": {"molecular_target": "Protein kinase C gamma type (Homo sapiens) (UniProt P05129)", "test": "PKCgamma(h) Millipore kinase activity assay", "details": "Compound concentration 1.0 uM"}, "[33]": {"molecular_target": "Serine/threonine-protein kinase MARK2 (Homo sapiens) (UniProt Q7KZI7)", "sequence (Q7KZI7 whole entry)": "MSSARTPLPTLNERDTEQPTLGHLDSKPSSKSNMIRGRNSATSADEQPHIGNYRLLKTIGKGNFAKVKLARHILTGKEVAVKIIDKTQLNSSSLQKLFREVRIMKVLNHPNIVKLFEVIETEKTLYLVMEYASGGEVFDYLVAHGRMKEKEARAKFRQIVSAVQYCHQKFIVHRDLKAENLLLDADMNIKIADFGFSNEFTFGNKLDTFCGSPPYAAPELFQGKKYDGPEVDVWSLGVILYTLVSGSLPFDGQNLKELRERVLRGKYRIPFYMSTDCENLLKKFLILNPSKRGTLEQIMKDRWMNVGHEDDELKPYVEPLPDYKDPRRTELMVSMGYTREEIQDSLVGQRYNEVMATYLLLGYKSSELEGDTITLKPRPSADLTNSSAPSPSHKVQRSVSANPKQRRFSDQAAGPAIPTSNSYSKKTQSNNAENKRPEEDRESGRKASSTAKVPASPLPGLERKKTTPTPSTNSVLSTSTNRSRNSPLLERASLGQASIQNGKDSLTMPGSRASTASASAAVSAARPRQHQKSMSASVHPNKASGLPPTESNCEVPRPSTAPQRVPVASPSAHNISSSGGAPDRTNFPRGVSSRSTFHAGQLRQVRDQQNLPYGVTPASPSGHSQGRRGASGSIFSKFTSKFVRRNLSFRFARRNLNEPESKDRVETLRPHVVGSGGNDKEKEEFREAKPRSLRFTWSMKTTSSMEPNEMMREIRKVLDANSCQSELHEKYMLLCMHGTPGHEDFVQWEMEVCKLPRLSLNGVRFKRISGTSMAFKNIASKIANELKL", "test": "PAR-1Balpha (h) Millipore kinase activity assay", "details": "Compound concentration 1.0 uM"}, "[34]": {"molecular_target": "B2 bradykinin receptor (Homo sapiens) (UniProt P30411)", "details": "Compound concentration 10.0 uM"}, "[35]": {"molecular_target": "Tyrosine-protein kinase FRK (Homo sapiens) (UniProt P42685)", "test": "PTK5 (h) Millipore kinase activity assay", "details": "Compound concentration 1.0 uM"}, "[36]": {"test_system": "Hs746T", "test": "Cell proliferation with Hs746T cells", "type": "functional", "details": "Homo sapiens"}, "[37]": {"molecular_target": "T1, 5-hydroxytryptamine receptor 1A (Homo sapiens) (UniProt P08908)", "T1 sequence (whole entry)": "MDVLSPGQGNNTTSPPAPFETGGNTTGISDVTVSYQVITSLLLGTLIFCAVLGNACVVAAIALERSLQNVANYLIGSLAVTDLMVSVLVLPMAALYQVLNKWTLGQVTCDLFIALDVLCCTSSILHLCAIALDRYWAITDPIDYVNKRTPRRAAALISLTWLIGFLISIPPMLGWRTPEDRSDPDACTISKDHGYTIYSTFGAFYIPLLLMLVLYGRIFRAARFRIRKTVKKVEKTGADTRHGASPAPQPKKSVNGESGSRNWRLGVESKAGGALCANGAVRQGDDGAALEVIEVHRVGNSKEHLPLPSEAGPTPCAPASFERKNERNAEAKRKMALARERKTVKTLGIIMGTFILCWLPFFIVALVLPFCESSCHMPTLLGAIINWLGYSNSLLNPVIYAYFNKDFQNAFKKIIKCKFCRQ", "details": "Compound concentration 10.0 uM"}, "[38]": {"molecular_target": "Serine/threonine-protein kinase 3 (Homo sapiens) (UniProt Q13188)", "test": "MST2 (h) Millipore kinase activity assay", "details": "Compound concentration 1.0 uM"}, "[39]": {"molecular_target": "Ribosomal protein S6 kinase alpha-6 (Homo sapiens) (UniProt Q9UK32)", "test": "Rsk4 (h) Millipore kinase activity assay", "details": "Compound concentration 1.0 uM"}, "[40]": {"molecular_target": "Receptor-interacting serine/threonine-protein kinase 2 (Homo sapiens) (UniProt O43353)", "sequence (O43353 whole entry)": "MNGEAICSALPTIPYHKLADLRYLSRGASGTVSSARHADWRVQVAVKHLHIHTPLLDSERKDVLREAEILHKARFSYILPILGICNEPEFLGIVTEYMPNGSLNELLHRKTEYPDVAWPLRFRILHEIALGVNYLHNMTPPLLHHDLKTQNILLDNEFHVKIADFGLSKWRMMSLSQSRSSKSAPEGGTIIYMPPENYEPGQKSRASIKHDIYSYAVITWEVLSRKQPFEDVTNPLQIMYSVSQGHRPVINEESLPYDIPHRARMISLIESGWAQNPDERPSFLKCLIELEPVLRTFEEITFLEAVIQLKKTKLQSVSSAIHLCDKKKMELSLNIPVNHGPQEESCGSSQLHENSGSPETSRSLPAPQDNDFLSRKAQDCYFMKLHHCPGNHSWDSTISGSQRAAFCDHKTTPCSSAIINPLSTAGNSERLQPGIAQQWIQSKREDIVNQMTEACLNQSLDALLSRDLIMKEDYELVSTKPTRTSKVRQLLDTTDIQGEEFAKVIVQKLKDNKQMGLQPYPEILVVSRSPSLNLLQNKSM", "test": "RIPK2 (h) Millipore kinase activity assay", "details": "Compound concentration 1.0 uM"}}, "note": "The source made the active and inactive calls. No cut-off for these calls is given here.", "data": [{"smiles": "CC1=C(C#N)[C@@H](c2ccc3[nH]nc(C)c3c2)C(C#N)=C(c2ccc(Cl)cc2)N1", "note": "[BAY-827]", "values": [{"measurement": "residual activity", "setting": "[1]", "result": 100, "unit": "%"}, {"measurement": "residual activity", "setting": "[2]", "result": 100, "unit": "%"}, {"measurement": "residual activity", "setting": "[3]", "result": 80.3, "unit": "%"}, {"measurement": "residual activity", "setting": "[4]", "result": 90.6, "unit": "%"}, {"measurement": "residual activity", "setting": "[5]", "result": 100, "unit": "%"}, {"measurement": "residual activity", "setting": "[6]", "result": 84.7, "unit": "%"}, {"measurement": "residual activity", "setting": "[7]", "result": 100, "unit": "%"}, {"measurement": "residual activity", "setting": "[8]", "result": 71.3, "unit": "%"}, {"measurement": "residual activity", "setting": "[9]", "result": 100, "unit": "%"}, {"measurement": "residual activity", "setting": "[10]", "result": 52.6, "unit": "%"}, {"measurement": "residual activity", "setting": "[11]", "result": 100, "unit": "%"}, {"measurement": "residual activity", "setting": "[12]", "result": 88.1, "unit": "%"}, {"measurement": "residual activity", "setting": "[13]", "result": 100, "unit": "%"}, {"measurement": "residual activity", "setting": "[14]", "result": 97.8, "unit": "%"}, {"measurement": "residual activity", "setting": "[15]", "result": 52.6, "unit": "%"}, {"measurement": "residual activity", "setting": "[16]", "result": 100, "unit": "%"}, {"measurement": "residual activity", "setting": "[17]", "result": 93.5, "unit": "%"}, {"measurement": "residual activity", "setting": "[18]", "result": 58.7, "unit": "%"}, {"measurement": "residual activity", "setting": "[19]", "result": 100, "unit": "%"}, {"measurement": "residual activity", "setting": "[20]", "result": 91.1, "unit": "%"}, {"measurement": "residual activity", "setting": "[21]", "result": 100, "unit": "%"}, {"measurement": "residual activity", "setting": "[22]", "result": 93.2, "unit": "%"}, {"measurement": "residual activity", "setting": "[23]", "result": 100, "unit": "%"}, {"measurement": "residual activity", "setting": "[24]", "result": 100, "unit": "%"}, {"measurement": "residual activity", "setting": "[25]", "result": 100, "unit": "%"}, {"measurement": "residual activity", "setting": "[26]", "result": 82.2, "unit": "%"}, {"measurement": "residual activity", "setting": "[27]", "result": 100, "unit": "%"}, {"measurement": "residual activity", "setting": "[28]", "result": 100, "unit": "%"}, {"measurement": "residual activity", "setting": "[29]", "result": 100, "unit": "%"}, {"measurement": "residual activity", "setting": "[30]", "result": 100, "unit": "%"}, {"measurement": "residual activity", "setting": "[31]", "result": 100, "unit": "%"}]}, {"smiles": "CC1=C(C#N)C(c2ccc3[nH]nc(C)c3c2)C(C#N)=C(C)N1", "note": "[BAY-474]", "values": [{"measurement": "inhibition", "setting": "[32]", "result": 18, "unit": "%"}, {"measurement": "inhibition", "setting": "[33]", "result": 26, "unit": "%"}, {"measurement": "inhibition", "setting": "[34]", "result": -10, "unit": "%"}, {"measurement": "inhibition", "setting": "[35]", "result": 2, "unit": "%"}, {"measurement": "IC90", "setting": "[36]", "result": "56 nM (active)"}, {"measurement": "inhibition", "setting": "[37]", "result": -9, "unit": "%"}, {"measurement": "inhibition", "setting": "[38]", "result": 7, "unit": "%"}, {"measurement": "inhibition", "setting": "[39]", "result": 52, "unit": "%"}, {"measurement": "inhibition", "setting": "[40]", "result": 5, "unit": "%"}]}]}
